Read-outs that look alike come from different tables or passages of the source.
Legend:
[1] = test system: PAF-induced platelet aggregation; experiment: Platelet aggregation assay: inhibition of platelet aggregation induced by PAF (in vitro); type: cell-based; conditions: Homo sapiens; for inhibition at 0.5 µM: concentration 0.5 μM; for inhibition at 5 µM: concentration 5 μM; for inhibition at 50 µM: concentration 50 μM; for IC50: read-out: PAF antagonism (in vitro) IC50; for inhibition at 0.125 µM: concentration 0.125 μM; for inhibition at 0.25 µM: concentration 0.25 μM; for inhibition at 0.12 µM: concentration 0.12 μM; for inhibition at 2.5 µM: concentration 2.5 μM
Method: A. In Vitro Studies--Platelet Aggregation Assay
Platelet-activating factor (PAF) causes aggregation of platelets by a receptor-mediated mechanism. Therefore, PAF-induced platelet aggregation provides a simple and convenient assay to screen compounds for PAF antagonism.
Blood was centrifuged at 110×g for 15 min. and the supernatant platelet-rich plasma (PRP) carefully transferred into a polypropylene tube. Platelet-poor-plasma (PPP) was prepared by centrifuging PRP at 12,000×g for 2 min. PRP was used within 3 hr. of drawing the blood.
PAF was dissolved in chloroform:methanol (1:1, v/v) at a concentration of 2 mg/mL and stored at -70° C. An aliquot of this solution was transferred to a polypropylene tube and […] under a flow of nitrogen gas. […] The solution was sonicated for 5 min. This stock solution was further diluted to appropriate concentrations in Hepes-saline-BSA buffer. Collagen and adenosine diphosphate (ADP) were purchased as solutions. Test compounds were initially dissolved in dimethyl sulfoxide (DMSO) at a concentration of 50 mM and then further diluted in Hepes-saline-BSA buffer to achieve appropriate concentrations.
When an aggregating agent such as PAF is added to PRP, platelets aggregate. An aggregometer quantifies this aggregation by measuring and comparing light (infra-red) transmission through PPP and PRP. Aggregation assays were performed using a dual-channel aggregometer. PRP (0.45 ml) in aggregometer cuvettes was continually stirred (37° C.). Solutions (50 μL) of test compounds or vehicle were added to the PRP and, after incubation for 2 min., 10-15 μL aliquots of PAF solution were added to achieve a final concentration of 1-5×10^-8 M. In different experiments the aggregatory response was kept within a set limit by varying the concentration of PAF. Incubations were continued until the increase in light transmission reached a maximum (usually 2 min.). This increase in light transmission reflecting platelet aggregation is transmitted to a computer. The computer calculates the slope of transmission change, thus providing the rate of aggregation. Values for inhibition were calculated by comparing rates of aggregation obtained in the absence and the presence of the compound. For each experiment, a standard PAF antagonist such as 8-chloro-6,11-dihydro-11-(1-acetyl-4-piperidylidene)-5H-benzo[5,6]cyclohepta[1,2-b]pyridine was used as a positive control.
Compounds that inhibit PAF-induced aggregation were tested against several other aggregating agents including collagen (0.2 mg/ml) and ADP (2 μM).

[2] = test system: histamine-induced bronchospasm; experiment: Agonist-induced bronchospasm in guinea pigs, histamine (in vivo, oral); parameters: species or system guinea pig (male Hartley)
Method: (§1) In Vivo Studies: Agonist-Induced Responses--Spasmogen-Induced Bronchospasm in Guinea Pigs
(§2) Male Hartley guinea pigs (450-550 g) were obtained from Charles River Breeding Laboratories. The animals were fasted overnight and the following day were anesthetized with 0.9 mL/kg i.p. of dilaurethane (containing 0.1 g/mL diallylbarbituric acid, 0.4 g/ml ethylurea and 0.4 g/ml urethane). The left jugular vein was cannulated for the administration of compounds. The trachea was cannulated and the animals were ventilated by a rodent respirator at 55 strokes/min. with a stroke volume of 4 mL. A side arm to the tracheal cannula was connected to a pressure transducer to obtain a continuous measure of inflation pressure. Bronchoconstriction was measured as the percent increase in inflation pressure that peaked within 5 min. after challenge with spasmogen. […] Each animal was challenged with only a single spasmogen. The effect of a compound on the bronchospasm is expressed as a percent inhibition of the increase in inflation pressure compared to the, increase in a control group.

[3] = test system: PAF-induced bronchospasm; experiment: Agonist-induced bronchospasm in guinea pigs, PAF (in vivo, oral); parameters: species or system guinea pig (male Hartley)
Method: as §1, §2

SMILES | inhibition at 0.5 µM [1] [%] | inhibition at 5 µM [1] [%] | inhibition at 50 µM [1] [%] | PAF agonist bronchospasm % inhibition ([3]; 3 mg/kg) [%] | inhibition at 0.25 µM [1] [%] | further results
[O-][n+]1ccc(CN2CCC(C(O)(c3ccc(Cl)cc3)c3nccs3)CC2)cc1 (centres unmarked) [Formula 1.0A11] | 7 | 76 | 83 | – | – | –
[O-][n+]1ccc(CN2CCC(C(O)(c3ccc(Cl)cc3)c3cccs3)CC2)cc1 (centres unmarked) [Formula 1.0A9] | – | 24 | 100 | – | – | –
CC(=O)N1CCC(=C2c3ccc(Cl)cc3CCc3cccnc32)CC1 [Compound B, reference compound] | – | – | – | 4 | – | IC50 ([1]; in vitro, known compounds, for purposes of comparison): 610 nM; Histamine agonist bronchospasm % inhibition ([2]; 3 mg/kg): 48%
O=C(c1cc[n+]([O-])cc1)N1CCC(C(O)(c2ccc(Cl)cc2)c2ccccn2)CC1 (centres unmarked) [Formula 1.0A3] | 88 | 95 | 92 | 87 | 69 | inhibition at 0.063 µM ([1]; concentration 0.063 μM): 41%; inhibition at 0.125 µM [1]: 53%
O=C(c1cc[n+]([O-])cc1)N1CCC(C(O)(c2ccccn2)c2ccccn2)CC1 [Formula 1.0A1] | 97 | – | – | 93 | 68 | inhibition at 0.12 µM [1]: 28%
O=C(c1cc[n+]([O-])cc1)N1CCC(C(O)(c2ccc(Cl)cc2)c2cccs2)CC1 (centres unmarked) [Formula 1.0A8] | 74 | 100 | 89 | 0 | – | inhibition at 1.25 µM ([1]; concentration 1.25 μM): 26%; inhibition at 2.5 µM [1]: 55%
O=C(c1cc[n+]([O-])cc1)N1CCC(C(O)(c2ccc(Cl)cc2)c2nccs2)CC1 (stereo not drawn) [Formula 1.0A10, α-(4-chlorophenyl)-1-(4-pyridinylcarbonyl)-α-(2-thiazolyl)-4-piperidinemethanol N^1-oxide] | 88 | 92 | 86 | 93 | 67 | inhibition at 0.125 µM [1]: 52%; Histamine agonist bronchospasm % inhibition ([2]; 10 mg/kg): 12%; PAF agonist bronchospasm % inhibition (duration) ([3]; 4 mg/kg, time 6 (unit not given)): 99%
CC(=O)N1CCC(=C2c3ccc(Cl)cc3CCc3cccnc32)CC1 [Compound D, reference compound] | – | – | – | – | – | PAF agonist bronchospasm % inhibition (duration) ([3]; 15 mg/kg, time 4 (unit not given)): 61%; PAF agonist bronchospasm % inhibition (duration) ([3]; 15 mg/kg, time 8 (unit not given)): 32%
[O-][n+]1ccc(CN2CCC(C(O)(c3ccccc3)c3cccs3)CC2)cc1 (centres unmarked) [Formula 1.0A5] | 59 | – | – | 20 | 41 | inhibition at 0.12 µM [1]: 35%; inhibition at 1.2 µM ([1]; concentration 1.2 μM): 81%; inhibition at 2.5 µM [1]: 91%
CCOC(=O)N1CCC(=C2c3ccc(Cl)cc3CCc3cccnc32)CC1 [Compound A, reference compound] | – | – | – | – | – | IC50 [1]: > 50000 nM; Histamine agonist bronchospasm % inhibition ([2]; 1 mg/kg): > 50%; PAF agonist bronchospasm % inhibition ([3]; 10 mg/kg): < 50%
O=C(c1cc[n+]([O-])cc1)N1CCC(=C2c3ccc(Cl)cc3CCc3cccnc32)CC1 [Compound C, reference compound] | – | – | – | – | – | PAF agonist bronchospasm % inhibition (duration) ([3]; 5 mg/kg, time 4 (unit not given)): 37%; PAF agonist bronchospasm % inhibition (duration) ([3]; 5 mg/kg, time 8 (unit not given)): 12%
O=C(c1cc[n+]([O-])cc1)N1CCC(C(O)(c2ccccn2)c2nccs2)CC1 (centres unmarked) [Formula 1.0A12] | 58 | 98 | 100 | – | 47 | –
